The term IC50 denotes the concentration needed to halve the response being measured. Higher therefore signals weaker potency in that assay.

Each structure is given as a SMILES string. Structures can show the parent of a compound that is named as a salt.

The subject of this assay is wildtype Wnt signaling cascade. The assay is described as follows: HEK293 TOP Assay (Super TopFlash luciferase reporter, Wnt-3a stimulated). It is filed as cell-based. Conditions: Homo sapiens, HEK293, 16 h, HEK293 TOP reporter cell line, Wnt-3a at EC50, 16 hours incubation, compound dilution series 50 μM to 15 nM. As for the experimental part:
In order to discover and characterize small molecules which inhibit the wildtype Wnt pathway, a cellular reporter assay was employed. The corresponding assay cell was generated by transfection of the mammalian cell line HEK293 (ATCC, #CRL-1573) with the Super TopFlash vector (Morin, Science 275, 1997, 1787-1790; Molenaar et al., Cell 86 (3), 1996, 391-399). The HEK293 cell line is cultivated at 37° C. and 5% CO2 in DMEM (Life Technologies, #41965-039), supplemented with 2 mM glutamine, 20 mM HEPES, 1.4 mM pyruvate, 0.15% Na-bicarbonate and 10% foetal bovine serum (GIBCO, #10270). Stable transfectants were generated by selection with 300 μg/ml Hygromycin.
In preparation of the assay, the two cell lines were plated 24 hrs before beginning the test at 10000 cells per well in a 384 micro titre plate (MTP) in 30 μl growth medium. […] The recombinant human Wnt-3a was thereby applied between 2500 and 5 ng/ml in two-fold dilution steps.
Selective inhibitory activity for small molecules on the wildtype Wnt pathway was determined after parallel incubation of both (TOP and FOP) HEK293 reporter cell lines with a compound dilution series from 50 μM to 15 nM in steps of 3.16-fold dilutions in CAFTY buffer (130 mM sodium chloride, 5 mM potassium chloride, 20 mM HEPES, 1 mM magnesium chloride, 5 mM sodium bicarbonate, pH 7.4) containing 2 mM Ca^2+ and 0.01% BSA.
The compounds were thereby serially prediluted in 100% DMSO and thereafter 50 fold into the CAFTY compound dilution buffer (described above).
In general terms: In a reporter assay the amount or activity of a reporter protein is the signal.
The molecule `CC(C)(CN1CCOCC1)NC(=O)c1[nH]cnc1C(=O)Nc1ccc(NC(=O)c2ccccc2Cl)cc1` [Example 154, N^4-{4-[(2-chlorobenzoyl)amino]phenyl}-N^5-[2-methyl-1-(morpholin-4-yl)propan-2-yl]-1H-imidazole-4,5-dicarboxamide] yielded an IC50 of 1.25 µM. `CNC(=O)c1nc[nH]c1C(=O)Nc1ccc(NC(=O)c2cc(F)cc(F)c2)cc1` [Example 321, N^5-{4-[(3,5-difluorobenzoyl)amino]phenyl}-N^4-methyl-1H-imidazole-4,5-dicarboxamide] yielded an IC50 of 50 µM. Consider `CNC(=O)c1nc[nH]c1C(=O)Nc1ccc(NC(=O)c2ccc(OC)c(F)c2)cc1` [Example 338, N^5-{4-[(3-fluoro-4-methoxybenzoyl)amino]phenyl}-N^4-methyl-1H-imidazole-4,5-dicarboxamide], for which inhibition was half-maximal at 2.8 µM (IC50). For the molecule `CNC(=O)c1nc[nH]c1C(=O)Nc1ccc(NC(=O)c2ccc(F)cc2)nc1` [Example 115, N^5-{6-[(4-fluorobenzoyl)amino]pyridin-3-yl}-N^4-methyl-1H-imidazole-4,5-dicarboxamide], the IC50 was 3.55 µM. In turn, `O=C(Nc1ccc(NC(=O)c2[nH]cnc2C(=O)NCCN2CCCC2=O)cc1)c1ccc(F)cc1Cl` [Example 398, N^5-{4-[(2-chloro-4-fluorobenzoyl)amino]phenyl}-N^4-[2-(2-oxopyrrolidin-1-yl)ethyl]-1H-imidazole-4,5-dicarboxamide] gave an IC50 of 0.71 µM. In turn, `CN(C)C(=O)c1[nH]cnc1C(=O)Nc1ccc(NC(=O)c2ccc(F)cc2)cc1` [Example 144, N^4-{4-[(4-fluorobenzoyl)amino]phenyl}-N^5,N^5-dimethyl-1H-imidazole-4,5-dicarboxamide] returned an IC50 of 50 µM.

Consider `O=C(Nc1ccc(NC(=O)c2nc[nH]c2C(=O)NC(CO)CO)cc1)c1ccc(F)cc1Cl` [Example 172, N^4-{4-[(2-chloro-4-fluorobenzoyl)amino]phenyl}-N^5-(1,3-dihydroxypropan-2-yl)-1H-imidazole-4,5-dicarboxamide], for which the midpoint of inhibition, the IC50, lay at 2.25 µM. The molecule `CNC(=O)c1nc[nH]c1C(=O)Nc1ccc(NC(=O)c2c(Cl)cc(Cl)cc2Cl)cc1` [Example 59, N^4-methyl-N^5-{4-[(2,4,6-trichlorobenzoyl)amino]phenyl}-1H-imidazole-4,5-dicarboxamide] displayed an IC50 of 6.58 µM. `O=C(Nc1ccc(NC(=O)c2nc[nH]c2C(=O)NCC(F)(F)F)cc1OC(F)(F)F)c1ccc(F)cc1Cl` [Example 292, N^4-{4-[(2-chloro-4-fluorobenzoyl)amino]-3-(trifluoromethoxy)phenyl}-N^5-(2,2,2-trifluoroethyl)-1H-imidazole-4,5-dicarboxamide] returned an IC50 of 11 µM. Consider `CN1CCN(NC(=O)c2[nH]cnc2C(=O)Nc2ccc(NC(=O)c3ccc(F)cc3)cc2)CC1` [Example 193, N^4-{4-[(4-fluorobenzoyl)amino]phenyl}-N^5-(4-methylpiperazin-1-yl)-1H-imidazole-4,5-dicarboxamide], for which the IC50 is 5.7 µM. In turn, `COc1cc(NC(=O)c2[nH]cnc2C(=O)NCCN(C)C)ccc1NC(=O)c1ccc(F)cc1` [Example 104, N^4-[2-(dimethylamino)ethyl]-N^5-{4-[(4-fluorobenzoyl)amino]-3-methoxyphenyl}-1H-imidazole-4,5-dicarboxamide] showed an IC50 of 7.2 µM. `CNC(=O)c1nc[nH]c1C(=O)Nc1ccc(NC(=O)c2ccc(C)c(F)c2)cc1` [Example 328, N^5-{4-[(3-fluoro-4-methylbenzoyl)amino]phenyl}-N^4-methyl-1H-imidazole-4,5-dicarboxamide] registered an IC50 of 5.25 µM. Consider `CNC(=O)c1nc[nH]c1C(=O)Nc1ccc(NC(=O)c2cc(C)cc(C)c2)cc1` [Example 335, N^5-{4-[(3,5-dimethylbenzoyl)amino]phenyl}-N^4-methyl-1H-imidazole-4,5-dicarboxamide], for which it took 21.5 µM to reach half-maximal inhibition (IC50).

With `CNC(=O)c1nc[nH]c1C(=O)Nc1ccc(NC(=O)c2ccnc(Cl)c2)cc1` [Example 351, N^5-(4-{[(2-chloropyridin-4-yl)carbonyl]amino}phenyl)-N^4-methyl-1H-imidazole-4,5-dicarboxamide], inhibition was half-maximal at 12.5 µM (IC50). This IC50 is about 1.7-fold lower than that of the molecule before. The value for `CNC(=O)c1nc[nH]c1C(=O)Nc1ccc(NC(=O)c2ccc(C)cc2)cc1` [Example 337, N^4-methyl-N^5-{4-[(4-methylbenzoyl)amino]phenyl}-1H-imidazole-4,5-dicarboxamide] was 23.5 µM.

`CNC(=O)c1nc[nH]c1C(=O)Nc1ccc(NC(=O)c2c(OC)cccc2OC)cc1` [Example 57, N^5-{4-[(2,6-dimethoxybenzoyl)amino]phenyl}-N^4-methyl-1H-imidazole-4,5-dicarboxamide] returned an IC50 of 33 µM. This IC50 and that of the molecule before are within 1.5-fold of each other.

Take `CNC(=O)c1nc[nH]c1C(=O)Nc1ccc(NC(=O)c2ccn(C)n2)cc1` [Example 332, N^4-methyl-N^5-(4-{[(1-methyl-1H-pyrazol-3-yl)carbonyl]amino}phenyl)-1H-imidazole-4,5-dicarboxamide]: the IC50 was determined as 9.65 µM. In turn, `Cc1cc(NC(=O)c2[nH]cnc2C(=O)NCCN(C)C)ccc1NC(=O)c1ccccc1Cl` [Example 88, N^5-{4-[(2-chlorobenzoyl)amino]-3-methylphenyl}-N^4-[2-(dimethylamino)ethyl]-1H-imidazole-4,5-dicarboxamide] returned an IC50 of 2.4 µM. This IC50 lies about 4-fold lower than the previous one.

Turning to `CNC(=O)c1nc[nH]c1C(=O)Nc1ccc(NC(=O)c2ccc(OC)c(OC)c2Cl)cc1` [Example 348, N^5-{4-[(2-chloro-3,4-dimethoxybenzoyl)amino]phenyl}-N^4-methyl-1H-imidazole-4,5-dicarboxamide], the midpoint of inhibition, the IC50, lay at 7.05 µM. Against the preceding molecule, the IC50 is about 2.9-fold higher. The figure for `CC(C)OCCCNC(=O)c1nc[nH]c1C(=O)Nc1ccc(NC(=O)c2ccc(F)cc2Cl)cc1` [Example 383, N^5-{4-[(2-chloro-4-fluorobenzoyl)amino]phenyl}-N^4-[3-(propan-2-yloxy)propyl]-1H-imidazole-4,5-dicarboxamide] is 50 µM.

The molecule `CNC(=O)c1nc[nH]c1C(=O)Nc1ccc(NC(=O)c2cccc(OC)c2F)cc1` [Example 365, N^5-{4-[(2-fluoro-3-methoxybenzoyl)amino]phenyl}-N^4-methyl-1H-imidazole-4,5-dicarboxamide] came in with an IC50 of 50 µM. That is a double-digit micromolar value. Molecule `O=C(Nc1ccc(NC(=O)c2nc[nH]c2C(=O)NC(CO)CO)cc1)c1ccc(F)cc1` [Example 150, N^5-(1,3-dihydroxypropan-2-yl)-N^4-{4-[(4-fluorobenzoyl)amino]phenyl}-1H-imidazole-4,5-dicarboxamide] registered an IC50 of 50 µM.

`CNC(=O)c1nc[nH]c1C(=O)Nc1ccc(NC(=O)c2c(F)ccc(F)c2F)cc1` [Example 323, N^4-methyl-N^5-{4-[(2,3,6-trifluorobenzoyl)amino]phenyl}-1H-imidazole-4,5-dicarboxamide] returned an IC50 of 1.45 µM. Consider `CN(C)CCNC(=O)c1nc[nH]c1C(=O)Nc1ccc(NC(=O)c2ccc(F)cc2)nc1` [Example 116, N^4-[2-(dimethylamino)ethyl]-N^5-{6-[(4-fluorobenzoyl)amino]pyridin-3-yl}-1H-imidazole-4,5-dicarboxamide], for which the IC50 is 44 µM. On to `CNC(=O)c1nc[nH]c1C(=O)Nc1ccc(NC(=O)c2cccc(C)c2)cc1` [Example 336, N^4-methyl-N^5-{4-[(3-methylbenzoyl)amino]phenyl}-1H-imidazole-4,5-dicarboxamide], for which the IC50 came out at 11 µM. This IC50 lies about 4-fold lower than the previous one.

Consider `CNC(=O)c1nc[nH]c1C(=O)Nc1ccc(NC(=O)c2ccoc2)cc1` [Example 312, N^5-{4-[(furan-3-ylcarbonyl)amino]phenyl}-N^4-methyl-1H-imidazole-4,5-dicarboxamide], for which inhibition was half-maximal at 50 µM (IC50). The molecule `CNC(=O)c1nc[nH]c1C(=O)Nc1ccc(NC(=O)c2cccc(OC)c2)cc1` [Example 305, N^5-{4-[(3-methoxybenzoyl)amino]phenyl}-N^4-methyl-1H-imidazole-4,5-dicarboxamide] showed an IC50 of 31.5 µM. In turn, `CNC(=O)c1nc[nH]c1C(=O)Nc1ccc(NC(=O)c2ccc(F)c(C)c2)cc1` [Example 373, N^5-{4-[(4-fluoro-3-methylbenzoyl)amino]phenyl}-N^4-methyl-1H-imidazole-4,5-dicarboxamide] returned an IC50 of 4.2 µM. Against the preceding molecule, the IC50 is about 7.5-fold lower. In the case of `O=C(Nc1ccc(NC(=O)c2nc[nH]c2C(=O)N2CCNCC2)cc1)c1ccc(F)cc1Cl` [Example 289, N-{4-[(2-chloro-4-fluorobenzoyl)amino]phenyl}-5-(piperazin-1-ylcarbonyl)-1H-imidazole-4-carb oxamide hydrochloric acid salt], the IC50 was determined as 2.7 µM.

The molecule `CNC(=O)c1nc[nH]c1C(=O)Nc1ccc(NC(=O)c2ccc(F)c(F)c2)cc1` [Example 320, N^5-{4-[(3,4-difluorobenzoyl)amino]phenyl}-N^4-methyl-1H-imidazole-4,5-dicarboxamide] came in with an IC50 of 4.8 µM. This IC50 is about 1.8-fold higher than that of the molecule before.

As to `NC1CCN(C(=O)c2[nH]cnc2C(=O)Nc2ccc(NC(=O)c3ccc(F)cc3Cl)cc2)C1` (stereo not shown) [Example 285, 5-[(3-aminopyrrolidin-1-yl)carbonyl]-N-{4-[(2-chloro-4-fluorobenzoyl)amino]phenyl}-1H-imidazole-4-carboxamide hydrochloride salt], half-maximal inhibition (IC50) was put at 1.15 µM. Against the preceding molecule, the IC50 is about 4.2-fold lower.

These data come from US9884063B2, “Amido-substituted azole compounds” (Bayer Pharma Aktiengesellschaft, priority 2014, dated 2018).
